Results taken from patent US7638525B2 (Janssen Pharmaceutica N.V., priority 2004, dated 2009).

Test system: T47D human breast cancer cells
Experiment: In vitro test: alkaline phosphatase assay in T47D human breast cancer cells
Assay type: cell-based
Conditions: alkaline phosphatase luminescence after 24 h with compound, test concentration not given
Description: T47D human breast cancer cells are grown in RPMI medium without phenol red (Invitrogen) containing 10% (v/v) heat-inactivated fetal bovine serum (FBS; Hyclone), 1% (v/v) penicillin-streptomycin (Invitrogen), 1% (w/v) glutamine (Invitrogen), and […] (Sigma). Incubation conditions are 37° C. in a humidified 5% (v/v) carbon dioxide environment. For assay, the cells are plated in 96-well tissue culture plates at 10,000 cells per well in assay medium [RPMI medium without phenol red (Invitrogen) containing 5% (v/v) charcoal-treated FBS (Hyclone) and 1% (v/v) penicillin-streptomycin (Invitrogen)]. Two days later, the medium is decanted and the compounds are added in a final concentration of 0.1% (v/v) dimethyl sulfoxide in fresh assay medium. Twenty-four hours later, an alkaline phosphatase assay is performed using a SEAP kit (BD Biosciences Clontech, Palo Alto, Calif.). Briefly, the medium is decanted and the cells are fixed for 30 minutes at room temperature with 5% (v/v) formalin (Sigma). The cells are washed once with room temperature Hank's buffered saline solution (Invitrogen). Equal volumes (0.05 mL) of 1× Dilution Buffer, Assay Buffer and 1:20 substrate/enhancer mixture are added. After 1-hour incubation at room temperature in the dark, the lysate is transferred to a white 96-well plate (Dynex) and luminescence is read using a LuminoSkan Ascent (Thermo Electron, Woburn, Mass.).

Row | SMILES | % inhibition [%]
1 | O=C(c1ccc(Cl)c(Cl)c1)c1cc(-c2ccncc2)c(N2CCC3(CC2)OCCO3)s1 [Example 1, (3,4-Dichloro-phenyl)-[5-(1,4-dioxa-8-aza-spiro[4.5]-dec-8-yl)-4-pyridin-4-yl-thiophen-2-yl]-methanon] | 6
2 | O=C(c1ccc(F)cc1)c1cc(-c2ccncc2)c(N2CCC3(CC2)OCCO3)s1 [Example 2, [5-(1,4-Dioxa-8-aza-spiro[4.5]-dec-8-yl)-4-pyridin-4-yl-thiophen-2-yl]-(4-fluoro-phenyl)-methanone] | 15
3 | O=C(c1ccc(Cl)cc1)c1cc(-c2ccncc2)c(N2CCC3(CC2)OCCO3)s1 [Example 3, (4-Chloro-phenyl)-[5-(1 4-dioxa-8-aza-spiro[4.5]-dec-8-yl)-4-pyridin-4-yl-thiophen-2-yl]-methanone] | 27
4 | O=C(c1ccc([N+](=O)[O-])cc1)c1cc(-c2ccncc2)c(N2CCC3(CC2)OCCO3)s1 [Example 4, [5-(1 4-Dioxa-8-aza-spiro[4.5]-dec-8-yl)-4-pyridin-4-yl-thiophen-2-yl]-(4-nitro-phenyl)-methanone] | 0
5 | CCC(=O)c1cc(-c2ccncc2)c(N2CCC3(CC2)OCCO3)s1 [Example 5, 1-[5-(1,4-Dioxa-8-aza-spiro[4.5]-dec-8-yl)-4-pyridin-4-yl-thiophen-2-yl]-1-one] | 0
6 | O=C(c1ccccc1)c1cc(-c2ccncc2)c(N2CCC3(CC2)OCCO3)s1 [Example 6, [5-(1,4-Dioxa-8-aza-spiro[4.5]-dec-8-yl)-4-pyridin-4-yl-thiophen-2-yl]-phenyl-methanone] | 34
7 | COc1cccc(C(=O)c2cc(-c3ccncc3)c(N3CCC4(CC3)OCCO4)s2)c1 [Example 7, [5-(1,4-Dioxa-8-aza-spiro[4.5]-dec-8-yl)-4-pyridin-4-yl-thiophen-2-yl-](3-methoxy-phenyl)-methanone] | 42
8 | O=C(c1cc(C(F)(F)F)cc(C(F)(F)F)c1)c1cc(-c2ccncc2)c(N2CCC3(CC2)OCCO3)s1 [Example 8, (3,5-Bis-trifluoromethyl-phenyl)-[5-(1 4-dioxa-8-aza-spiro[4.5]-dec-8-yl)-4-pyridin-4-yl-thiophen-2-yl]-methanone] | 0
9 | COc1ccccc1C(=O)c1cc(-c2ccncc2)c(N2CCC3(CC2)OCCO3)s1 [Example 9, [5-(1,4-Dioxa-8-aza-spiro[4.5]-dec-8-yl)-4-pyridin-4-yl-thiophen-2-yl]-(2-methoxy-phenyl)-methanone] | 30
10 | O=C(c1cccc(Br)c1)c1cc(-c2ccncc2)c(N2CCC3(CC2)OCCO3)s1 [Example 10, (3-Bromo-phenyl)-[5-(1,4-dioxa-8-aza-spiro[4.5]-dec-8-yl)-4-pyridin-4-yl-thiophen-2-yl]-methanone] | 42
11 | O=C1CCN(c2sc(C(=O)c3ccccc3)cc2-c2ccncc2)CC1 [Example 11, 1-(5-Benzoyl-3-pyridin-4-yl-thiophen-2-yl)-piperidin-4-one] | 35
12 | COc1cccc(C(=O)c2cc(-c3ccncc3)c(N3CCC(=O)CC3)s2)c1 [Example 12, 1-[5-(3-Methoxy-benzoyl)-3-pyridin-4-yl-thiophen-2-yl]-piperidin-4-one] | 24
13 | O=C1CCN(c2sc(C(=O)c3ccc(F)cc3)cc2-c2ccncc2)CC1 [Example 13, 1-[5-(4-Fluoro-benzoyl)-3-pyridin-4-yl-thiophen-2-yl]-piperidin-4-one] | 46
14 | O=C1CCN(c2sc(C(=O)c3cc(C(F)(F)F)cc(C(F)(F)F)c3)cc2-c2ccncc2)CC1 [Example 14, 1-[5-(3,5-Bis-trifluoromethyl-benzoyl)-3-pyridin-4-yl-thiophen-2-yl]-piperidin-4-one] | 57
15 | COc1ccccc1C(=O)c1cc(-c2ccncc2)c(N2CCC(=O)CC2)s1 [Example 15, 1-[5-(2-Methoxy-benzoyl)-3-pyridin-4-yl-thiophen-2-yl]-piperidin-4-one] | 39
16 | O=C1CCN(c2sc(C(=O)c3ccc(Cl)cc3)cc2-c2ccncc2)CC1 [Example 16, 1-[5-(4-Chloro-benzoyl)-3-pyridin-4-yl-thiophen-2-yl]-piperidin-4-one] | 30
17 | O=C1CCN(c2sc(C(=O)c3ccc([N+](=O)[O-])cc3)cc2-c2ccncc2)CC1 [Example 17, 1-[5-(4-Nitro-benzoyl)-3-pyridin-4-yl-thiophen-2-yl]-piperidi n-4-one] | 30
18 | CCC(=O)c1cc(-c2ccncc2)c(N2CCC(=O)CC2)s1 [Example 18, 1-(5-Propionyl-3-pyridin-4-yl-thiophen-2-yl)-piperidin-4-one] | 26
19 | O=C1CCN(c2sc(C(=O)c3cccc([N+](=O)[O-])c3)cc2-c2ccncc2)CC1 [Example 19] | 29
20 | O=C1CCN(c2sc(C(=O)c3cccc(Br)c3)cc2-c2ccncc2)CC1 [Example 20, 1-[5-(3-Bromo-benzoyl)-3-pyridin-4-yl-thiophen-2-yl]-piperidin-4-one] | 23
